In patent US6538022B1, “Compounds for deactivating phospholamban function on Ca-ATPase (phopholamban inhibitors)” (Orion Corporation, priority 1997, dated 2003):
Bridges are numbered along the chain shown (N, C = ends). Where no end group is shown, it is not given here.

How the values were obtained:
guinea-pig heart = experiment: Left ventricular systolic pressure in isolated Langendorff-perfused heart; conditions: Cavia porcellus; for Emax at 10 µM / Emax at 30 µM: read-out: maximum effect (% change from baseline) on left ventricular systolic pressure; for EC50: concentration range 0.3-30 μM
Description: Experiment 2. The effects on the left ventricular pressure derivatives
Guinea-pigs of either sex weighing 300-400 g were used in the study. After the guinea-pig was sacrificed by a blow on the skull and decapitated the heart was rapidly excised. The heart was then rinsed in cold oxygenated perfusion buffer. A cannula was inserted into the aorta and secured with a ligature. Retrograde perfusion began as soon as the heart was placed in a thermostatically controlled moist chamber of the Langendorff apparatus. Modified Tyrode solution (37° C.), equilibrated in a thermostatically controlled bulb oxygenator with carbogen (95% O2 and 5% CO2) was used as a perfusion buffer. The composition of the Tyrode solution was (in mM): NaCl 135; MgCl2×6H2O 1; KCl 5; CaCl2×2H2O 2; NaHCO3 15; Na2HPO4×2H2O 1; glucose 10; pH 7.3-7.4. The experiments were carried out under constant pressure condition (50 mmHg). After a short prestabilization (10 min) a latex balloon (size 4) was carefully placed into the left ventricle through the left pulmonary vein and the left atrium. The latex balloon was attached to a stainless-steel cannula coupled with a pressure transducer. The latex balloon, the cannula and the chamber of the pressure transducer were filled with ethylene glycol/water (1:1) mixture avoiding any air-bubble. The isovolumetric left ventricular pressure was recorded through the pressure transducer. At the beginning of the experiment, the volume of the balloon was adjusted to obtain a diastolic pressure of approximately 5 mmHg. Before starting the experiment, the heart was allowed to stabilise further for 30-50 min with vehicle (0.1% DMSO) in the perfusion buffer.
After 15 min baseline recording various concentrations of the test compound were added to the perfusion buffer at 15 min intervals. The concentration range of 0.3-30 μM was tested. The vehicle concentration (0.1% DMSO) was kept constant throughout the experiment.

PLB = target: T1, PLB (Homo sapiens, UniProt P26678); experiment: Peptide screen for binding to PLB
T1 sequence (P26678 1-52): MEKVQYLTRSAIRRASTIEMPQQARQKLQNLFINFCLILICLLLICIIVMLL
Description: In order to find a lead molecule which would interact with PLB a series of peptides were screened. […] It was concluded that the cyclic peptide of formula (pI) binds to unphosphorylated PLB and prevents the inhibition exerted by PLB on SERCA—2 thus acting as a PLB deactivator. The cyclic peptide (pI) has the structure: [drawing 1]

phospholamban = experiment: Ca2+ uptake into SR vesicles prepared from cardiac tissue (fluo-3); type: biochemical, guinea pig; conditions: 0.1 μM free calcium
Description: (§1) Experiment 1. Effect on calcium uptake into the SR vesicles prepared from cardiac and fast skeletal muscle
(§2) Since phospholamban represses both the rates of relaxation and contraction in the mammalian heart through its inhibitory effects on the cardiac SR Ca^2+-ATPase, a compound relieving these effects is potentially useful in the treatment of heart failure.
(§3) Guinea pigs (10-12) were decapited. Their hearts or the psoas muscles were excised, washed in ice-cold 0.9% NaCl and cut into pieces in a buffer containing 20 mM Tris-maleate, 0.3 M sucrose, pH 7.0. Thereafter tissue pieces were homogenized with Polytron and further with Potter (10 strokes). The homogenate was centrifugated at 1000 g for 15 min at 4° C. The supernatant was collected and the pellet was resuspended into 5 ml of the buffer (20 mM Tris-maleate, 0.3 M sucrose, pH 7.0) and recentrifugated at 1000 g for 10 min at 4° C. The obtained supernatant was combined with the earlier collected supernatant and centrifugated once again at 10000 g for 20 min at 4° C. The final supernatant was filtered into a bottle equipped with a magnetic stirrer. KCl was added to the filtered supernatant to achieve the final concentration of 0.6 M (at 4° C.). The obtained solution was centrifugated at 100 000 g for 60 min at 4° C. The pellet was suspended in 5 ml of the buffer containing 20 mM Tris-maleate, 0.3 M sucrose, pH 7.0 and centrifugated at 100 000 g for 60 min at 4° C. The obtained pellet was suspended in 5 ml of buffer containing 20 mM Tris-maleate, 0.3 M sucrose, 0.1 M KCl, pH 7.0 and stored at −80° C. until use. The protein concentration was also measured in order to standardise the separately prepared vesicle preparations.
(§4) In the calcium uptake assay, the fluorescent indicator, fluo-3 was used to detect the decrease of the extravesicular Ca^2+-concentration, when the SR Ca^2+ATPase was transferring Ca^2+ from the extravesicular space into the SR-vesicles.
(§5) The SR-vesicles obtained above (50 μg protein/ml) were pre-incubated with or without the test compound at 37° C. for 5 min in the assay buffer containing 40 mM imidazole, 95 mM KCl, 5 mM NaN3, 5 mM MgCl2, 0.5 mM EGTA, 5 mM potassium oxalate, 2 μM ruthenium red, 5 μM fluo-3, pH 7.0. The free calcium was adjusted to 0.1 μM or to 0.04 μM by CaCl2. The reaction was initiated by adding ATP (5 mM). The final reaction volume was 1.5 ml. The fluorescence of reaction mixture was measured for 3 min by using the excitation and emission wavelengths of 510 nm and 530 nm, respectively.

SR Ca^2+-ATPase = experiment: Ca2+ uptake into SR vesicles prepared from fast skeletal muscle (psoas m.), which lack phospholamban (fluo-3); type: biochemical, guinea pig; conditions: 0.04 μM free calcium
Description: as §1, §2, §3, §4, §5

Row | EC50 (guinea-pig heart) [µM] | Compound | Emax at 10 µM (guinea-pig heart) [%] | Emax at 30 µM (guinea-pig heart) [%] | The stimulation (%) of Ca^2+ uptake, A (ventricular myocardium vesicles) (phospholamban; 100 μM compound) [%] | further results
1 | 0.5 | O=c1oc2cc(OCc3nn[nH]n3)cc(OCc3nn[nH]n3)c2c2c1CC(c1ccccc1)CC2 (centres unmarked) [Example 6c, 7,8,9,10-Tetrahydro-1,3-bis[(1H-tetrazol-5-yl)methoxy]-8-phenyl-6H-dibenzo[b,d]pyran-6-one] | 25 |  |  | 
2 |  | cP226: cyclic peptide of formula (pI) wherein X is Tyr; linear CYWELEWLPCA cyclized by intramolecular disulphide bridge; PLB deactivator (disulfide 1-10 (inferred)) |  |  |  | binding to PLB (PLB): binds to the ligand binding site of phospholamban
3 | 2 | Cc1c(Cc2ccccc2)c(=O)n(Cc2ccccc2)c2cc(OCc3nnn[nH]3)cc(OCc3nn[nH]n3)c12 [Example 8g, 5,7-Bis[(1H-tetrazol-5-yl)methoxy]-1,3-dibenzyl-4-methyl-2(1H)-quinolinone] | 64 |  |  | The stimulation (%) of Ca^2+ uptake, A (ventricular myocardium vesicles) (phospholamban; 10 μM compound): 18%; The stimulation (%) of Ca^2+ uptake, B (fast skeletal muscle vesicles) (SR Ca^2+-ATPase; 10 μM compound): 0%
4 | 10 | Cc1c(C2CCCC2)c(=O)oc2cc(OCc3nn[nH]n3)cc(OCc3nn[nH]n3)c12 [Example 16c, 5,7-Bis[(1H-tetrazol-5-yl)methoxy]-3-cyclopentyl-4-methyl-2H-1-benzopyran-2-one] |  | 57 |  | 
5 |  | Cc1c(Cc2ccccc2)c(=O)n(Cc2ccccc2)c2cc(OCC(N)=O)cc(OCC(N)=O)c12 [Example 21, 5,7-Bis(aminocarbonylmethoxy)-1,3-dibenzyl-4-methyl-2(1H)-quinolinone] |  |  | 11 | 
6 | 6 | Cc1c(Cc2ccccc2F)c(=O)n(Cc2ccccc2)c2cc(OCc3nnn[nH]3)cc(OCc3nnn[nH]3)c12 [Example 19e] |  | 39 |  | 
7 | 10 | Cc1cc(=O)n(Cc2ccccc2)c2cc(OCc3nnn[nH]3)cc(OCc3nnn[nH]3)c12 [Example 18e, 1-Benzyl-5,7-bis-[(1H-tetrazol-5-yl)methoxy]-4-methyl-2(1H)-quinolinone] |  | 35 | 13 | 
8 | 2.5 | Cc1c(CCc2ccccc2)c(=O)oc2cc(OCc3nn[nH]n3)cc(OCc3nn[nH]n3)c12 [Example 7c, 5,7-Bis[(1H-tetrazol-5-yl)methoxy]-4-methyl-3-(2-phenylethyl)-2H-1benzopyran-2-one] | 29 |  | 5 | The stimulation (%) of Ca^2+ uptake, B (fast skeletal muscle vesicles) (SR Ca^2+-ATPase; 100 μM compound): −17%
9 | 3 | Cc1c(Cc2ccc([N+](=O)[O-])cc2)c(=O)oc2cc(OCc3nn[nH]n3)cc(OCc3nn[nH]n3)c12 [Example 15c, 5,7-Bis[(1H-tetrazol-5-yl)methoxy]-3-(4-nitrobenzyl)-4-methyl-2H-1-benzopyran-2-one] | 37 |  |  | 
10 | 9 | Cc1c(Cc2ccccc2)c(=O)oc2cc(OCc3nn[nH]n3)cc(OCc3nn[nH]n3)c12 [Example 1c, 3-Benzyl-5,7-bis[(1H-tetrazol-5-yl)methoxy]-4-methyl-2H-1-benzopyran-2-one] |  | 52 |  | 
11 |  | Cc1c(Cc2ccccc2)c(=O)oc2cc(OC(C)c3nn[nH]n3)cc(OC(C)c3nn[nH]n3)c12 (centres unmarked) [Example 11b, 3-Benzyl-5,7-bis[1-(1H-tetrazol-5-yl)ethoxy]4-methyl-2 H-1-benzopyran-2-one] |  |  | 28 | 
12 |  | Cc1c(Cc2ccccc2)c(=O)n(Cc2ccccc2)c2cc(OCC(=O)NO)cc(OCC(=O)NO)c12 [Example 23, 5,7-Bis(hydroxyaminocarbonylmethoxy)-1,3-dibenzyl-4-methyl-2(1H)-quinolinone] |  |  |  | The stimulation (%) of Ca^2+ uptake, A (ventricular myocardium vesicles) (phospholamban; 5 μM compound): 20%
13 | 10 | Cc1c(Cc2ccccc2)c(=O)n(Cc2ccc(F)cc2)c2cc(OCc3nn[nH]n3)cc(OCc3nn[nH]n3)c12 [Example 13d, 3-Benzyl-5,7-Bis[(1H-tetrazol-5-yl)methoxy]-1-(4-fluorobenzyl)-4-methyl-2(1H)-quinolinone] |  | 48 |  | The stimulation (%) of Ca^2+ uptake, A (ventricular myocardium vesicles) (phospholamban; 50 μM compound): 23%
14 |  | Cc1c(Cc2ccccc2)c(=O)n(Cc2ccccc2)c2cc(OCC(=O)O)cc(OCC(=O)O)c12 [Example 12, 5,7-Bis(carboxymethoxy)-1,3-dibenzyl-4-methyl-2(1H)-quinolinone] | 22 |  | 32 | 
15 |  | O=c1cc(-c2ccccc2)c2c(OCc3nn[nH]n3)cc(OCc3nn[nH]n3)cc2o1 [Example 5c, 5,7-Bis[(1H-tetrazol-5-yl)methoxy]-4-phenyl-2H-1-benzopyran-2-one] |  | 14 |  | 
16 | 4 | Cc1c(Cc2ccccc2)c(=O)oc2cc(OCc3noc(=O)[nH]3)cc(OCc3noc(=O)[nH]3)c12 [Example 3c, 3-Benzyl-5,7-bis[(2,5-dihydro-5-oxo-4H-1,2,4-oxadiazol-3-yl)-methoxy]-4-methyl-2H-1-benzopyran-2-one] | 63 |  |  | The stimulation (%) of Ca^2+ uptake, A (ventricular myocardium vesicles) (phospholamban; 20 μM compound): 51%; The stimulation (%) of Ca^2+ uptake, B (fast skeletal muscle vesicles) (SR Ca^2+-ATPase; 20 μM compound): 0%
17 |  | O=c1oc2cc(OCc3nn[nH]n3)cc(OCc3nn[nH]n3)c2c2c1C(c1ccccc1)CCC2 (centres unmarked) [Example 2c, 7,8,9,10-Tetrahydro-1,3-bis[(1H-tetrazol-5-yl)methoxy]-7-phenyl-6H-dibenzo[b,d]pyran-6-one] |  |  | 26 | The stimulation (%) of Ca^2+ uptake, B (fast skeletal muscle vesicles) (SR Ca^2+-ATPase; 100 μM compound): −1%
18 |  | Cc1c(Cc2ccc(Cl)cc2)c(=O)oc2cc(OCc3nn[nH]n3)cc(OCc3nn[nH]n3)c12 [Example 14c, 5,7-Bis[(1H-tetrazol-5-yl)methoxy]-3-(4-chlorobenzyl)-4-methyl-2H-1-benzopyran-2-one] | 25 |  |  | The stimulation (%) of Ca^2+ uptake, A (ventricular myocardium vesicles) (phospholamban; 10 μM compound): 18%
19 | 5 | Cc1c(Cc2ccccc2)c(=O)n(C)c2cc(OCc3nnn[nH]3)cc(OCc3nn[nH]n3)c12 [Example 9d, 5,7-Bis[(1H-tetrazol-5-yl)methoxy]-3-benzyl-1,4-dimethyl-2(1H)-quinolinone] |  | 50 |  | 
